Data on seven molecules can be found in patent US12414960B2, “Analogues of oleuropein and oleacein and uses thereof” (Attica Sciences Ltd., priority 2020, dated 2025).

Assay [1] in a line: DPPH radical scavenging assay. The class given is biochemical. Particulars: NS = not statistically significant. The protocol: The method of assessing the antioxidant capacity through the binding of the stable DPPH. radical was performed for the first time by Brand-Williams et al. in 1995 (Brand-William, W. et al., Lebensm Wiss Technol, 1995, 28: 25-30, “Use of a free radical method to evaluate antioxidant activity”). The method used herein is a variation of the original method and is one of the most characteristic and simple methods for the initial assessment of the antioxidant activity of antioxidant molecules or extracts rich in compounds with antioxidant properties.
The assessment of antioxidant capacity is based on the interaction of the tested molecules with the stable radical of 2,2-diphenyl-1-picrylydrazyl (DPPH). The DPPH. radical can be inactivated either by the addition of an electron or by a hydrogen atom. It is a stable organic nitrogen radical that is purple in color and absorbs at 517 nm. When a substance with antioxidant activity is added to the radical solution, then 2,2-diphenyl-1-picrylydrazyl (DPPH.) is reduced by the addition of a hydrogen atom (or electron) and converted to 2,2-diphenyl-1-picrylhydrazine (DPPH) which has a yellow color, resulting in reduction to the visual absorption (FIG. 2).
The effects of GS compounds on DPPH radical was evaluated as described previously (Spanou, C et al., Anticancer Research, 2007, 27: 3403-3410). Briefly, the assay was carried out in 1 mL of methanol containing 100 μM freshly made DPPH in methanol and the tested GS compound at different concentrations. The contents were vigorously mixed, incubated at room temperature in the dark for 20 minutes and the absorbance was read at 517 nm using a Hitachi U-1500 Spectrophotometer (San Jose, USA). In each experiment, the tested extract alone in methanol was used as blank and DPPH alone in methanol was used as control. […] The radical scavenging capacity (RSC) of the tested extracts was expressed as a percentage of DPPH elimination calculated according to the following equation: % RSC=[(absorbance of control−absorbance of GS compound)/absorbance of control]×100.

A further assay concerns HepG2 liver cancer cells. The experiment in a line: XTT cell growth assay, HepG2. It is filed as cell-based, human. Particulars: NS = not statistically significant; for inhibition at 50 µM: Homo sapiens, HepG2, 24 h, read-out: Effectiveness to suppress HepG2 cell growth (cell growth inhibition). The source says: The XTT assay is used to measure cellular metabolic activity as an indicator of cell viability, proliferation and cytotoxicity. This non-radioactive, colorimetric assay system was first described by Scudiero, et al. in 1988 (Paull, Kenneth D. et al., J Heterocycl Chem, 1988, 25: 911-914; Scudiero, Dominic A. et al., Cancer Res, 1988, 48: 4827-4833) and improved in subsequent years by several other investigators (Weislow, Owen S. et al., J Natl Cancer Inst, 1989, 81(8): 577-586; Roehm, N. W. et al., J Immunol Methods, 1991, 142: 257-265).
The XTT assay is based on the reduction of a yellow tetrazolium salt (sodium 3′-[1-(phenylaminocarbonyl)-3,4-tetrazolium]-bis (4-methoxy6-nitro) benzene sulfonic acid hydrate or XTT) to an orange formazan dye by metabolically active cells (FIG. 8). The formazan dye formed is soluble in aqueous solutions and is directly quantified using a scanning multiwell spectrophotometer (ELISA reader). An increase in number of living cells results in an increase in the overall activity of mitochondrial dehydrogenases in the sample. This increase directly correlates to the amount of orange formazan formed, as monitored by the absorbance. Reduced number of living cells leads to reduced metabolism of quaternary salt and therefore reduced absorption.
Cell viability was assessed using the XTT assay kit (Roche, Mannheim, Germany) as described previously (Kouka, Paraskevi et al., Oxid Med Cell Longev. 2019, Article ID 1870965). Briefly, cancer cells per well were cultured in a 96-well plate in Dulbecco's modified Eagle's medium (DMEM). Following a 24 h incubation, 5, 10 and 50 μM of the tested GS compound was diluted in a serum-free DMEM and administered for 24 h. Subsequently, 50 μL of the XTT reagent (50:1) was added to each well. After 4 h of incubation, the absorbance was monitored at 450 nm and also at 630 nm as a reference wavelength in a BioTek ELx800 microplate reader (BioTek Instruments Inc., Winooski, VT, USA). As a negative control, samples containing serum-free DMEM only were used.
Hep G2 (or HepG2) is a human liver cancer cell line. Hep G2 is an immortal cell line which was derived from the liver tissue of an adolescent with a well-differentiated hepatocellular carcinoma. Hep G2 cells are a suitable in vitro model system for the study of polarized human hepatocytes.
The effects of exemplary compounds on cancer cell lines and one non-tumorigenic cell line (control) were investigated using a high throughput screening assay. More specifically, the effects of the GS compounds on cell growth was evaluated by the XTT assay for cell lines HepG2, HeLa, MCF7 ER+, MDA-MB-231, and MKN-45, and by the Cell Glo luminescence assay for cell lines MIA PaCa-2, HCT-116, MCF-10A, and PANC-1.

`C/C=C1/[C@H](OC2OC(CO)C(O)C(O)C2O)OC=C(C(=O)O)[C@H]1CC(=O)OCCc1ccc(O)c(O)c1` (stereo in doubt) [GS6, (2S,4S,E)-4-(2-(3,4-dihydroxyphenethoxy)-2-oxoethyl)-3-ethylidene-2{[(2R,3S,4R,5R,6S)-3,4,5-trihydroxy-6-(hydroxymethyl)tetrahydro-2H-pyran-2-yl]oxy}-3,4dihydro-2H-pyran-5-carboxylic acid]: in assay [1], the “DPPH Radical Scavenging Assay IC50” value is 5.9 μg extract/mL.

As to `C/C=C1/[C@H](O[C@@H]2O[C@H](CO)[C@@H](O)[C@H](O)[C@H]2O)OC=C(C(=O)OC)[C@H]1CC(=O)OCCc1ccc(O)c(O)c1` [GS1, oleuropein], the “DPPH Radical Scavenging Assay IC50” value in assay [1] was determined as 13.8 μg extract/mL. On the same count and under the same terms, with `C/C=C(/C=O)[C@@H](CC=O)CC(=O)OCCc1ccc(O)c(O)c1` [GS17, (3S,4E)-4-formyl-3-(2-oxoethyl)-4-hexenoic acid 2-(3,4-dihydroxyphenyl)ethyl ester, reference compound] the figure was 11.5 μg extract/mL. Consider `C/C=C(/C=O)[C@@H](CC=O)CC(=O)OCCOc1ccccc1` [GS24, (3S,4E)-4-formyl-3-(2-oxoethyl)-4-hexenoic acid 2-phenoxyethyl ester], for which the inhibition at 50 µM in the assay with HepG2 liver cancer cells worked out at 57.9%. The same measure, in the same setting: with `C/C=C(/C=O)[C@@H](CC=O)CC(=O)OCCCCCCCCCCCCCCCC` [GS26, (3S,4E)-4-formyl-3-(2-oxoethyl)-4-hexenoic acid hexadecyl ester] the figure was 50%; with `C/C=C(/C=O)[C@@H](CC=O)CC(=O)SCCc1ccccc1` [GS27, S-phenethyl (3S,4E)-4-formyl-3-(2-oxoethyl)hex-4-enethioate], 40.9%.

Regarding `C/C=C(/C=O)[C@@H](CC=O)CC(=O)OCCCSC` [GS28, (3S,4E)-4-formyl-3-(2-oxoethyl)-4-hexenoic acid 3-(methylthio)propyl ester], the “Effectiveness to suppress HepG2 cell growth (cell growth inhibition)” value in the assay on HepG2 liver cancer cells (50 uM, 24 h) is on record as “best efficacy”. In addition, in the assay on HepG2 liver cancer cells, the inhibition at 50 µM was 69.7%.
